Data from US8952024B2, “Herbicidal pyrimidone derivatives” (E I du Pont de Nemours and Company, priority 2009, dated 2015).
Where two headings read alike, the source gives them in different places.

Experiments:
Assay in all cases: Test B pre-/postemergence plant response
Assay type in all cases: in vivo
[1] = test system: green foxtail (Setaria viridis); conditions: Setaria viridis; for pest or weed control at 125 g/ha: 125 g ai/ha
Procedure, shortened: (§1)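 Ratings reflect visual comparison with untreated controls 13 to 15 days after application, from 0 (no effect) to 100 (complete control). Application was preemergence to seeded loam/sand soil or postemergence to 1- to 4-leaf plants, with compound in a non-phytotoxic, surfactant-containing solvent.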

[2] = test system: bermudagrass (Cynodon dactylon); conditions: for pest or weed control at 31 g/ha: 31 g ai/ha; for pest or weed control at 125 g/ha: 125 g ai/ha
Procedure, shortened: as §1

soybean (Glycine max) = test system: soybean (Glycine max)
Procedure, shortened: as §1

[3] = test system: cocklebur (Xanthium strumarium); conditions: for pest or weed control at 31 g/ha: 31 g ai/ha; for pest or weed control at 125 g/ha: 125 g ai/ha
Procedure, shortened: as §1

[4] = test system: morningglory (Ipomoea coccinea); conditions: for pest or weed control at 125 g/ha: 125 g ai/ha
Procedure, shortened: as §1

[5] = test system: downy bromegrass (Bromus tectorum); conditions: for pest or weed control at 31 g/ha: 31 g ai/ha; for pest or weed control at 125 g/ha: 125 g ai/ha
Procedure, shortened: as §1

[6] = test system: yellow nutsedge (Cyperus esculentus); conditions: for pest or weed control at 31 g/ha: 31 g ai/ha; for pest or weed control at 125 g/ha: 125 g ai/ha
Procedure, shortened: as §1

[7] = test system: ragweed (common ragweed, Ambrosia elatior); conditions: for pest or weed control at 31 g/ha: 31 g ai/ha; for pest or weed control at 125 g/ha: 125 g ai/ha
Procedure, shortened: as §1

kochia (Kochia scoparia) = conditions: for pest or weed control at 31 g/ha: 31 g ai/ha; for pest or weed control at 125 g/ha: 125 g ai/ha
Procedure, shortened: as §1

[8] = 62 g ai/ha, postemergence, 0 is no effect, 100 is complete control, 13 to 15 days
[9] = Preemergence, 250 g ai/ha, 0 to 100 scale

Structure (SMILES): COCCCn1c(-c2ccccc2)ncc(C(=O)C2=C(O)CCCC2=O)c1=O [Compound 81, 5-[(2-hydroxy-6-oxo-cyclohexen-1-yl)carbonyl]-3-(3-methoxypropyl)-2-phenyl-4(3H)-pyrimidinone]
- pest or weed control at 125 g/ha ([1]; post-emergence, Postemergence, visual rating after 13 to 15 days, scale 0 (no effect) to 100 (complete control)): 95%
- pest or weed control at 250 g/ha ([1]; post-emergence, Postemergence, 250 g ai/ha, scale 0 to 100 (0 no effect, 100 complete control), read-out: Plant response rating, Foxtail, Green): 95%
- pest or weed control at 31 g/ha ([1]; pre-emergence, Preemergence, 31 g ai/ha, scale 0 to 100 (0 no effect, 100 complete control), read-out: Plant response rating, Foxtail, Green): 80%
- pest or weed control at 62 g/ha ([1]; pre-emergence, Preemergence, 62 g ai/ha, scale 0 to 100, 0 no effect, 100 complete control, read-out: Plant response rating, Foxtail, Green): 90%
- pest or weed control at 125 g/ha ([1]; pre-emergence, Preemergence, scale 0 to 100, 0 no effect, 100 complete control, read-out: Plant response rating, Foxtail, Green): 100%
- Bermudagrass plant response rating (0 to 100 scale) [2, 8]: 85
- pest or weed control at 31 g/ha ([2]; Cynodon dactylon, post-emergence, postemergence, scale 0 to 100, 0 is no effect, 100 is complete control, read-out: Plant response rating, Bermudagrass): 85%
- pest or weed control at 125 g/ha ([2]; Cynodon dactylon, post-emergence, Postemergence, visual rating after 13 to 15 days, scale 0 (no effect) to 100 (complete control)): 95%
- pest or weed control at 250 g/ha ([2]; Cynodon dactylon, post-emergence, Postemergence, 250 g ai/ha, scale 0 to 100 (0 no effect, 100 complete control), read-out: Plant response rating, Bermudagrass): 95%
- pest or weed control at 31 g/ha ([2]; Cynodon dactylon, pre-emergence, Preemergence, scale 0 to 100 (0 no effect, 100 complete control), read-out: Plant response rating, Bermudagrass): 100%
- pest or weed control at 62 g/ha ([2]; Cynodon dactylon, pre-emergence, Preemergence, 62 g ai/ha, scale 0 to 100, 0 no effect, 100 complete control, read-out: Plant response rating, Bermudagrass): 100%
- pest or weed control at 125 g/ha ([2]; Cynodon dactylon, pre-emergence, Preemergence, scale 0 to 100, 0 no effect, 100 complete control, read-out: Plant response rating, Bermudagrass): 100%
- Bermudagrass plant response rating ([2]; Preemergence, 250 g ai/ha, 0 to 100 scale, 0 no effect, 100 complete control): 100
- Soybean plant response rating (0 to 100 scale) (soybean (Glycine max); [8]): 95
- plant injury at 31 g/ha (soybean (Glycine max); Glycine max, post-emergence, 31 g ai/ha, postemergence, scale 0 to 100, 0 is no effect, 100 is complete control, read-out: Plant response rating, Soybean): 85%
- plant injury at 125 g/ha (soybean (Glycine max); Glycine max, post-emergence, Postemergence, 125 g ai/ha, visual rating after 13 to 15 days, scale 0 (no effect) to 100 (complete control)): 95%
- plant injury at 250 g/ha (soybean (Glycine max); Glycine max, post-emergence, Postemergence, 250 g ai/ha, scale 0 to 100 (0 no effect, 100 complete control), read-out: Plant response rating, Soybean): 98%
- Cocklebur plant response rating (0 to 100 scale) [3, 8]: 55
- Cocklebur plant response rating [3, 9]: 85
- pest or weed control at 31 g/ha ([3]; Xanthium strumarium, post-emergence, postemergence, scale 0 to 100, 0 is no effect, 100 is complete control, read-out: Plant response rating, Cocklebur): 5%
- pest or weed control at 125 g/ha ([3]; Xanthium strumarium, post-emergence, Postemergence, visual rating after 13 to 15 days, scale 0 (no effect) to 100 (complete control)): 65%
- pest or weed control at 250 g/ha ([3]; Xanthium strumarium, post-emergence, Postemergence, 250 g ai/ha, scale 0 to 100 (0 no effect, 100 complete control), read-out: Plant response rating, Cocklebur): 90%
- pest or weed control at 31 g/ha ([3]; Xanthium strumarium, pre-emergence, Preemergence, scale 0 to 100 (0 no effect, 100 complete control), read-out: Plant response rating, Cocklebur): 0%
- pest or weed control at 62 g/ha ([3]; Xanthium strumarium, pre-emergence, Preemergence, 62 g ai/ha, scale 0 to 100, 0 no effect, 100 complete control, read-out: Plant response rating, Cocklebur): 10%
- pest or weed control at 125 g/ha ([3]; Xanthium strumarium, pre-emergence, Preemergence, scale 0 to 100, 0 no effect, 100 complete control, read-out: Plant response rating, Cocklebur): 75%
- Morningglory plant response rating (0 to 100 scale) [4, 8]: 90
- pest or weed control at 31 g/ha ([4]; Ipomoea, post-emergence, 31 g ai/ha, postemergence, scale 0 to 100, 0 is no effect, 100 is complete control, read-out: Plant response rating, Morningglory): 75%
- pest or weed control at 125 g/ha ([4]; Ipomoea, post-emergence, Postemergence, visual rating after 13 to 15 days, scale 0 (no effect) to 100 (complete control)): 100%
- pest or weed control at 250 g/ha ([4]; Ipomoea, post-emergence, Postemergence, 250 g ai/ha, scale 0 to 100 (0 no effect, 100 complete control), read-out: Plant response rating, Morningglory): 100%
- pest or weed control at 62 g/ha ([4]; Ipomoea, pre-emergence, Preemergence, 62 g ai/ha, scale 0 to 100, 0 no effect, 100 complete control, read-out: Plant response rating, Morningglory): 65%
- pest or weed control at 125 g/ha ([4]; Ipomoea, pre-emergence, Preemergence, scale 0 to 100, 0 no effect, 100 complete control, read-out: Plant response rating, Morningglory): 80%
- Morningglory plant response rating [4, 9]: 95
- Bromegrass, Downy plant response rating (0 to 100 scale) [5, 8]: 5
- pest or weed control at 31 g/ha ([5]; Bromus tectorum, post-emergence, postemergence, scale 0 to 100, 0 is no effect, 100 is complete control, read-out: Plant response rating, Bromegrass, Downy): 5%
- pest or weed control at 125 g/ha ([5]; Bromus tectorum, post-emergence, Postemergence, visual rating after 13 to 15 days, scale 0 (no effect) to 100 (complete control)): 30%
- pest or weed control at 250 g/ha ([5]; Bromus tectorum, post-emergence, Postemergence, 250 g ai/ha, scale 0 to 100 (0 no effect, 100 complete control), read-out: Plant response rating, Bromegrass, Downy): 50%
- pest or weed control at 31 g/ha ([5]; Bromus tectorum, pre-emergence, Preemergence, scale 0 to 100 (0 no effect, 100 complete control), read-out: Plant response rating, Bromegrass, Downy): 0%
- pest or weed control at 62 g/ha ([5]; Bromus tectorum, pre-emergence, Preemergence, 62 g ai/ha, scale 0 to 100, 0 no effect, 100 complete control, read-out: Plant response rating, Bromegrass, Downy): 0%
- pest or weed control at 125 g/ha ([5]; Bromus tectorum, pre-emergence, Preemergence, scale 0 to 100, 0 no effect, 100 complete control, read-out: Plant response rating, Bromegrass, Downy): 0%
- Bromegrass, Downy plant response rating [5, 9]: 0
- Nutsedge, Yellow plant response rating (0 to 100 scale) [6, 8]: 80
- pest or weed control at 31 g/ha ([6]; Cyperus, post-emergence, postemergence, scale 0 to 100, 0 is no effect, 100 is complete control, read-out: Plant response rating, Nutsedge, Yellow): 65%
- pest or weed control at 125 g/ha ([6]; Cyperus, post-emergence, Postemergence, visual rating after 13 to 15 days, scale 0 (no effect) to 100 (complete control)): 80%
- pest or weed control at 250 g/ha ([6]; Cyperus, post-emergence, Postemergence, 250 g ai/ha, scale 0 to 100 (0 no effect, 100 complete control), read-out: Plant response rating, Nutsedge, Yellow): 80%
- pest or weed control at 31 g/ha ([6]; Cyperus, pre-emergence, Preemergence, scale 0 to 100 (0 no effect, 100 complete control), read-out: Plant response rating, Nutsedge, Yellow): 10%
- pest or weed control at 62 g/ha ([6]; Cyperus, pre-emergence, Preemergence, 62 g ai/ha, scale 0 to 100 (0 no effect, 100 complete control), read-out: Plant response rating, Nutsedge, Yellow): 75%
- pest or weed control at 125 g/ha ([6]; Cyperus, pre-emergence, Preemergence, scale 0 to 100, 0 no effect, 100 complete control, read-out: Plant response rating, Nutsedge, Yellow): 95%
- Nutsedge, Yellow plant response rating [6, 9]: 95
- Ragweed plant response rating (0 to 100 scale) [7, 8]: 80
- pest or weed control at 31 g/ha ([7]; Ambrosia artemisiifolia, post-emergence, 360 h, postemergence, scale 0 to 100, 0 is no effect, 100 is complete control, read-out: Plant response rating, Ragweed): 75%
- pest or weed control at 125 g/ha ([7]; Ambrosia artemisiifolia, post-emergence, 360 h, Postemergence, visual rating after 13 to 15 days, scale 0 (no effect) to 100 (complete control)): 98%
- pest or weed control at 250 g/ha ([7]; Ambrosia artemisiifolia, post-emergence, 360 h, Postemergence, 250 g ai/ha, scale 0 to 100 (0 no effect, 100 complete control), read-out: Plant response rating, Ragweed): 100%
- pest or weed control at 31 g/ha ([7]; Ambrosia artemisiifolia, pre-emergence, 360 h, Preemergence, scale 0 to 100 (0 no effect, 100 complete control), read-out: Plant response rating, Ragweed): 60%
- pest or weed control at 62 g/ha ([7]; Ambrosia artemisiifolia, pre-emergence, 360 h, Preemergence, 62 g ai/ha, scale 0 to 100 (0 no effect, 100 complete control), read-out: Plant response rating, Ragweed): 85%
- pest or weed control at 125 g/ha ([7]; Ambrosia artemisiifolia, pre-emergence, 360 h, Preemergence, scale 0 to 100, 0 no effect, 100 complete control, read-out: Plant response rating, Ragweed): 90%
- Ragweed plant response rating [7, 9]: 90
- Kochia plant response rating (0 to 100 scale) (kochia (Kochia scoparia); [8]): 80
- pest or weed control at 31 g/ha (kochia (Kochia scoparia); Bassia scoparia, post-emergence, postemergence, scale 0 to 100, 0 is no effect, 100 is complete control, read-out: Plant response rating, Kochia): 75%
- pest or weed control at 125 g/ha (kochia (Kochia scoparia); Bassia scoparia, post-emergence, Postemergence, visual rating after 13 to 15 days, scale 0 (no effect) to 100 (complete control)): 90%
- pest or weed control at 250 g/ha (kochia (Kochia scoparia); Bassia scoparia, post-emergence, Postemergence, 250 g ai/ha, scale 0 to 100 (0 no effect, 100 complete control), read-out: Plant response rating, Kochia): 100%
- pest or weed control at 31 g/ha (kochia (Kochia scoparia); Bassia scoparia, pre-emergence, Preemergence, scale 0 to 100 (0 no effect, 100 complete control), read-out: Plant response rating, Kochia): 45%
- pest or weed control at 62 g/ha (kochia (Kochia scoparia); Bassia scoparia, pre-emergence, Preemergence, 62 g ai/ha, scale 0 to 100 (0 no effect, 100 complete control), read-out: Plant response rating, Kochia): 55%
- pest or weed control at 125 g/ha (kochia (Kochia scoparia); Bassia scoparia, pre-emergence, Preemergence, scale 0 to 100, 0 no effect, 100 complete control, read-out: Plant response rating, Kochia): 65%
- Kochia plant response rating (kochia (Kochia scoparia); [9]): 70
